Patent publication US11051513B2, “Pyridone compounds and agricultural and horticultural fungicides containing the same as active ingredients” (MITSUI CHEMICALS AGRO, INC., priority 2017, dated 2021)

Legend:
[1] = tested on: Blumeria graminis f. sp. hordei; test: Test Example D: Powdery mildew on barley; conditions: in Hordeum vulgare, read-out: control value
Method: (§1) Disease development in Test Examples described below was evaluated in increments of 0.05 by setting 0 as no incidence of disease and 3 as disease development in a plant of untreated group. Further, control values were calculated using the following equation based on disease development.
(§2) <Control Value> Control value=100{1−(n/3)}
(§3) n=Disease development of each treated group
Seeds of a test plant (barley variety: Akashinriki) were planted and cultivated until the first leaves appeared. In the test, the inventive compounds were dissolved into a dimethyl sulfoxide-methanol mixture solution (volume ratio: 9/1), and the resultant solutions were diluted with well water to a concentration of 250 ppm. The thus-obtained dilutions were sprayed to the test plant (2.5 ml/pot). After the dilutions dried, conidia of Blumeria graminis f. sp. hordei were inoculated to the plant by shaking off. The disease development was investigated 6 to 10 days after the inoculation, and the effectiveness of the dilutions was evaluated.

[2] = tested on: Puccinia recondita; test: Test Example E: Brown rust on wheat; type: in vivo; conditions: 250 ppm sprayed (2.5 ml/pot) on wheat (Norin 61), disease development 7 to 10 days after inoculation
[3] = tested on: Botrytis cinerea; test: Test Example B: Gray mold on tomato; conditions: in Solanum lycopersicum, read-out: control value
Method: as §1, §2, §3
Seeds of a test plant (tomato variety: Oogata Fukuju) were planted and cultivated until three to five first leaves (true leaves) appeared. In the test, the inventive compounds were dissolved into a dimethyl sulfoxide-methanol mixture solution (volume ratio: 9/1), and the resultant solutions were diluted with well water to a concentration of 250 ppm. The thus-obtained dilutions were sprayed to the test plant (2.5 ml/pot). After the dilutions dried, a conidial suspension (4-8×10^5 conidia/ml) of Botrytis cinerea was inoculated to the plant by spraying. After the inoculation, the plant was kept in a mist chamber at room temperature of 20 to 23° C. for about 48 hours to promote the onset of disease. The disease development was investigated 2 to 3 days after the inoculation, and the effectiveness of the dilutions was evaluated.

[4] = tested on: Colletotrichum orbiculare; test: Test Example H: Anthracnose on cucumber; conditions: in Cucumis sativus, read-out: control value
Method: as §1, §2, §3
Seeds of a test plant (cucumber variety: Sagami Hanjiro) were planted and cultivated until the first leaf appeared. In the test, the inventive compounds were dissolved into a dimethyl sulfoxide-methanol mixture solution (volume ratio: 9/1), and the resultant solutions were diluted with well water to a concentration of 250 ppm. The thus-obtained dilutions were sprayed to the test plant (2.5 ml/pot). After the dilutions dried, a conidial suspension (2-4×10^5 conidia/ml) of Colletotrichum orbiculare was inoculated to the plant by spraying. After the inoculation, the plant was kept in a mist chamber at room temperature of 20 to 23° C. for about 24 hours to promote the onset of disease. The disease development was investigated 6 to 10 days after the inoculation, and the effectiveness of the dilutions was evaluated.

[5] = tested on: Magnaporthe grisea; test: whole plant or invertebrate; type: in vivo; conditions: Pyricularia oryzae, in Oryza sativa, read-out: control value
[6] = tested on: Alternaia brassicicola; test: Test Example C: Alternaria sooty spot on cabbage; conditions: Brassica oleracea, read-out: control value
Method: as §1, §2, §3
Seeds of a test plant (cabbage variety: Shikidori) were planted and cultivated until the cotyledons extended. In the test, the inventive compounds were dissolved into a dimethyl sulfoxide-methanol mixture solution (volume ratio: 9/1), and the resultant solutions were diluted with well water to a concentration of 250 ppm. The thus-obtained dilutions were sprayed to the test plant (2.5 ml/pot). After the dilutions dried, a conidial suspension (4-8×10^5 conidia/ml) of Alternaia brassicicola was inoculated to the plant by spraying. After the inoculation, the plant was kept in a mist chamber at room temperature of 20 to 23° C. for about 48 hours to promote the onset of disease. The disease development was investigated 2 to 3 days after the inoculation, and the effectiveness of the dilutions was evaluated.

Measured: pest or weed control at 250 ppm

CCN1C(=O)CCC(c2cc(F)cc(F)c2Cl)=C1c1ccc(F)cc1 [compound 11, 5-(2-chloro-3,5-difluorophenyl)-1-ethyl-6-(4-fluorophenyl)-3,4-dihydropyridin-2(1H)-one]
> 50%: all assays above

CCn1c(-c2ccc(F)cc2)c(-c2cc(F)cc(F)c2Cl)ccc1=O [compound 12, 5-(2-chloro-3,5-difluorophenyl)-1-ethyl-6-(4-fluorophenyl)pyridin-2(1H)-one]
> 50%: all assays above

CCn1c(-c2ccc(F)cc2)c(-c2cc(F)cc(F)c2Cl)cc(Cl)c1=O [compound 13, 3-chloro-5-(2-chloro-3,5-difluorophenyl)-1-ethyl-6-(4-fluorophenyl)pyridin-2(1H)-one]
> 50%: all assays above

CCn1c(-c2ccc(F)cc2)c(-c2cc(F)cc(F)c2Cl)cc(Br)c1=O [compound 14, 3-bromo-5-(2-chloro-3,5-difluorophenyl)-1-ethyl-6-(4-fluorophenyl)pyridin-2(1H)-one]
> 50%: all assays above

CCn1c(-c2ccc(F)cc2)c(-c2cc(F)cc(F)c2Cl)cc(C)c1=O [compound 27, 5-(2-Chloro-3,5-difluorophenyl)-1-ethyl-6-(4-fluorophenyl)-3-methylpyridin-2(1H)-one]
> 50%: all assays above

O=C1CCC(c2cc(F)cc(F)c2Cl)=C(c2ccc(F)cc2)N1CC(F)F [compound 29, 5-(2-chloro-3,5-difluorophenyl)-1-(2,2-difluoroethyl)-6-(4-fluorophenyl)-3,4-dihydropy ridin-2(1H)-one]
> 50%: [1] | [2] | [4] | [5]

O=c1ccc(-c2cc(F)cc(F)c2Cl)c(-c2ccc(F)cc2)n1CC(F)F [compound 30, 5-(2-chloro-3,5-difluorophenyl)-1-(2,2-difluoroethyl)-6-(4-fluorophenyl)pyridin-2(1H)-one]
> 50%: all assays above

O=c1c(Cl)cc(-c2cc(F)cc(F)c2Cl)c(-c2ccc(F)cc2)n1CC(F)F [compound 31, 3-chloro-5-(2-chloro-3,5-difluorophenyl)-1-(2,2-difluoroethyl)-6-(4-fluorophenyl)pyridin-2(1H)-one]
> 50%: all assays above

CCn1c(-c2ccc(F)cc2)c(-c2cc(OC)ccc2Cl)ccc1=O [compound 33, 5-(2-chloro-5-methoxyphenyl)-1-ethyl-6-(4-fluorophenyl)pyridin-2(1H)-one]
> 50%: all assays above

CCn1c(-c2ccc(F)cc2)c(-c2cc(OC)ccc2Cl)cc(Cl)c1=O [compound 44, 3-Chloro-5-(2-chloro-5-methoxyphenyl)-1-ethyl-6-(4-fluorophenyl)pyridin-2(1H)-one]
> 50%: all assays above

CCn1c(-c2ccc(F)cc2)c(-c2cc(OCOC)ccc2Cl)cc(Cl)c1=O [compound 248, 3-chloro-5-(2-chloro-5-(methoxymethoxy)phenyl)-1-ethyl-6-(4-fluorophenyl)pyridin-2(1H)-one]
> 50%: all assays above

CCn1c(-c2ccc(F)cc2)c(-c2cccnc2Cl)ccc1=O [compound 288, 2′-chloro-1-ethyl-2-(4-fluorophenyl)-[3,3′-bipyridin]-6(1H)-one]
> 50%: all assays above

CCn1c(-c2ccc(F)cc2)c(-c2cccnc2Cl)cc(Cl)c1=O [compound 291, 2′,5-dichloro-1-ethyl-2-(4-fluorophenyl)-[3,3′-bipyridin]-6(1H)-one]
> 50%: all assays above

CCn1c(-c2ccc(F)cc2)c(-c2cc(O)ccc2Cl)cc(Cl)c1=O [compound 340, 3-chloro-5-(2-chloro-5-hydroxyphenyl)-1-ethyl-6-(4-fluorophenyl)pyridin-2(1H)-one]
> 50%: all assays above
